The values below come from article PMC8655505, “Stimulation of the Runx2 P1 promoter by collagen-derived dipeptide prolyl-hydroxyproline bound to Foxg1 and Foxo1 in osteoblasts” (Bioscience Reports, 2021).

This assay concerns the target T1, Foxo1 (Mus musculus, UniProt Q9R1E0).
T1 construct: full-length
The experiment in a line: competition of free Pro-Hyp with (Pro-Hyp-Gly)5-linked magnetic beads, Western blot. Conditions: free Pro-Hyp 0.1 or 10 mM; pH 7.8, 150 mM KCl, 4 °C overnight; cell extract. In kind it is binding. (In western blotting, separated proteins are transferred to a membrane and probed.)

Square brackets hold non-standard residues; d marks the D form. Peptide text beside a SMILES is read from it. Hyp = O=C(O)[C@@H]1C[C@@H](O)CN1

T1 sequence (Q9R1E0 whole entry): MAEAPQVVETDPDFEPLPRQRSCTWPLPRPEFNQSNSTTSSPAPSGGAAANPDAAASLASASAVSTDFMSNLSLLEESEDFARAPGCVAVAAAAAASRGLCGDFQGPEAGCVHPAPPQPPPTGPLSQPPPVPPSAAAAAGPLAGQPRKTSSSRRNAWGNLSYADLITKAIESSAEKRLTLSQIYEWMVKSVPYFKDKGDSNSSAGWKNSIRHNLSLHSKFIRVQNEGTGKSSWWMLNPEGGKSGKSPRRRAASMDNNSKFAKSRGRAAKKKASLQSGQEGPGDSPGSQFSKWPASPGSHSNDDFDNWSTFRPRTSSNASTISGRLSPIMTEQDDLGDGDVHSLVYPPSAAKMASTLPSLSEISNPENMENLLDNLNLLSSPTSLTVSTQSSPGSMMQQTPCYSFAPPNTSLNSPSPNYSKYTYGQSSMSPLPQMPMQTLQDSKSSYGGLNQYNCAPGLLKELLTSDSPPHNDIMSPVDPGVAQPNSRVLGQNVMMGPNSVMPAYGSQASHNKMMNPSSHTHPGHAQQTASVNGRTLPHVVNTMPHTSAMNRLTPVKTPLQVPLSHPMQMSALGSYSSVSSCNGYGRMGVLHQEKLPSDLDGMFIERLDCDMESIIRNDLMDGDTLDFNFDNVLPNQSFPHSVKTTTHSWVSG

As to `O=C(O)[C@@H]1C[C@@H](O)CN1C(=O)[C@@H]1CCCN1` [Pro-Hyp] (H-Pro-[Hyp]-OH), the “competition of free Pro-Hyp with (Pro-Hyp-Gly)5-linked magnetic beads, Western b” value is “These data suggest that Pro-Hyp binds to Foxo1”.
